One assay deals with T1, delta opioid receptor (Rattus norvegicus, UniProt P33533).
T1 construct: from tissue; host or cells: forebrain of male Wistar rats
Kind of assay: Rat Brain Delta Opioid Receptor Binding Assay ([3H]DPDPE). The settings on record: rat forebrain membranes, margin of error 10-20%, read-out: r Ki δ. How it is done:
(§1) Male, Wistar rats (150-250 g, VAF, Charles River, Kingston, N.Y.) are killed by cervical dislocation, and their brains removed and placed immediately in ice cold Tris HCl buffer (50 mM, pH 7.4). The forebrains are separated from the remainder of the brain by a coronal transection, beginning dorsally at the colliculi and passing ventrally through the midbrain-pontine junction. After dissection, the forebrains are homogenized in Tris buffer in a Teflon® glass homogenizer. The homogenate is diluted to a concentration of 1 g of forebrain tissue per 80 mL Tris and centrifuged at 39,000×g for 10 min. The pellet is resuspended in the same volume of Tris buffer containing 5 mM MgCl2 with several brief pulses from a Polytron homogenizer. This particulate preparation is used for the delta opioid binding assays. Following incubation with the delta selective peptide ligand ˜4 nM [^3H]DPDPE at 25° C. for 2.5 h in a 96-well plate with total volume of 1 mL, the plate contents are filtered through Wallac filtermat B sheets on a Tomtec 96-well harvester. The filters are rinsed three times with 2 mL of 10 mM HEPES (pH 7.4), and dried in a microwave oven 2 min twice. To each sample area 2×50 μL of Betaplate Scint scintillation fluid (LKB) is added and analyzed on a LKB (Wallac) 1205 BetaPlate liquid scintillation counter.
The data are used to calculate either the % inhibition compared to control binding (when only a single concentration of test compound is evaluated) or a Ki value (when a range of concentrations is tested). % inhibition is calculated as: [(total dpm−test compound dpm)/(total dpm−nonspecific dpm)]*100. Kd and Ki values were calculated using GraphPad PRISM data analysis program.

In a further assay the target is T2, mu opioid receptor (Rattus norvegicus, UniProt P33535).
T2 construct: from tissue; host or cells: forebrain of male Wistar rats
The experiment in a line: Rat Brain Mu Opioid Receptor Binding Assay (and Version 2a, [3H]DAMGO). The settings on record: rat forebrain membranes, margin of error 10-20%, read-out: r Ki μ. How it is done:
as §1, with “mu-opioid” for “delta opioid”, “Following incubation with the delta selective peptide ligand ˜4 nM [^3H]DPDPE at 25° C. for 2.5 h in a 96-well plate with total volume of 1 mL, the plate contents are filtered through Wallac filtermat B sheets on a Tomtec 96-well harvester.” left out, “(pH7.4),” for “(pH 7.4),”
The data are used to calculate either the % inhibition compared to control binding (when only a single concentration of test compound is evaluated) or a Ki value (when a range of concentrations is tested). % inhibition is calculated as: [(total dpm-test compound dpm)/(total dpm-nonspecific dpm)]*100. Kd and Ki values were calculated using GraphPad PRISM data analysis program.
Male, Wistar rats (150-250 g, VAF, Charles River, Kingston, N.Y.) were killed by cervical dislocation, and their brains removed and placed immediately in ice-cold Tris HCl buffer (50 mM, pH 7.4). The forebrains were separated from the remainder of the brain by a coronal transection, beginning dorsally at the colliculi and passing ventrally through the midbrain-pontine junction. After dissection, the forebrains were homogenized in Tris buffer in a Teflon®-glass homogenizer. The homogenate was diluted to a concentration of 1 g of forebrain tissue per 80 mL Tris and centrifuged at 39,000×g for 10 min. The pellet was resuspended in the same volume of Tris buffer containing 5 mM MgCl2 with several brief pulses from a Polytron homogenizer. This particulate preparation was used for the mu opioid binding assay. Following incubation with 0.8 nM of the mu selective ligand [^3H]DAMGO at 25° C. for 2.5 h in a 96-well plate with total 1 mL, the plate contents were filtered through Wallac filtermat B sheets on a Tomtec 96-well harvester. The filters were rinsed three times with 2 mL of 10 mM HEPES (pH 7.4), and dried in a microwave oven. To each sample area, Betaplate Scint scintillation fluid (LKB) was added and the resulting radioactivity quantified on a LKB (Wallac) 1205 BetaPlate liquid scintillation counter. Kd and Ki values were calculated using the GraphPad PRISM data analysis program.

For assay [1], the target named is T3, mu opioid receptor (CHO-hMOR cell membranes) (Homo sapiens, UniProt P35372).
T3 construct: purchased Receptor Biology, Inc. (Baltimore, Md.); host or cells: CHO cells (recombinant expression)
Kind of assay: Mu Opioid Receptor Functional Assay: [35S]GTPγS Binding in CHO-hMOR Cell Membranes, Versions 1 and 2. The settings on record: for MOR GTP binding assay_v1 (% I): version 1, % inhibition of agonist-stimulated GTPγS binding; for MOR GTP assay_v1 % of Basal: version 1, basal binding = 100%. It is filed as biochemical. The method, boiled down: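 Agonist-stimulated [35S]GTPγS (0.5 nM) binding measured by SPA in human MOR CHO membranes, buffer pH 7.6 with 100 mM NaCl, 5 mM MgCl2. Antagonist mode: % inhibition of stimulation by 1 μM SNC80; agonist mode: EC50 fitted. Basal binding without agonist, non-specific with 10 μM cold GTPγS.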
In general terms: GTPγS resists hydrolysis and so accumulates on activated G proteins.

The target of a further assay is T4, human mu opioid receptor (Homo sapiens, UniProt P35372).
T4 construct: purchased Perkin Elmer RBHOMM400UA; host or cells: Chinese Hamster Ovary cells (recombinant expression)
Kind of assay: Human Mu Opioid Receptor Binding Assay (CHO membranes, 3H-Damgo). To be noted: read-out: hKi μ. The method, boiled down: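 Radioligand displacement of ³H-Damgo (diluted to 3.6 nM pre-mix) from recombinant human mu receptor in CHO membranes, 2 h, room temperature, 50 mM Tris pH 7.5 with 5 mM MgCl2. Bound label read by filtration and scintillation counting; 1 μM unlabelled Damgo defines nonspecific binding.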

The target of assay [2] is T5, human delta subtype 2 opioid receptor (Homo sapiens, UniProt P41143).
T5 construct: purchased Perkin Elmer RBHODM400UA; host or cells: Chinese Hamster Ovary cells (recombinant expression)
The experiment in a line: Human Delta Opioid Receptor Binding Assay (CHO membranes, 3H-Naltrindole). To be noted: read-out: hKi δ. The method, boiled down: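 Compound displacement of tritiated naltrindole (6 nM working dilution) measured by scintillation counting after GF/C filtration. Receptor source: recombinant CHO membranes; buffer 50 mM Tris, 5 mM MgCl2, pH 7.5; 30 min room-temperature incubation. 1 μM cold naltrindole sets nonspecific binding.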

Assay [3] has as its system novel environment-stressed mice. Kind of assay: In Vivo Assay-Stress-Induced Fecal Output (Fecal Output for 1 hr). The settings on record: 30 mg/kg oral, 1 hr; for response vs control in vivo at 30 mg/kg: Mus musculus, po, 1 h. Also noted: species or system mouse. The source says:
This assay evaluates the fecal output in novel environment-stressed mice to that of acclimated controls.
Methods: Adult, male, Crl:CD-1(ICR) mice, weighing ˜30-35 g were used in these studies, with a minimum of 10 mice per dose group. One group of mice was assigned as acclimated, or “non-stressed” controls. These control mice were transported from colony housing, where they were housed 3/cage in polycarbonate cages with access to food and water ad lib. to the procedure room. The mice were removed from their home cages and individually housed in 20 cm wide×20 cm deep×15 cm tall cages, equipped with a wire mesh bottom where they remained for a 16-18 hr period of acclimation to their novel environment. Mice were allowed access to food and water ad lib. during acclimation. The other groups of mice were assigned as non-acclimated, or “stressed” treatment groups. Each mouse in each group was weighed and vehicle, or test compound, was intragastrically administered by oral intubation in 0.5% methylcellulose. Mice were allowed access to water only ad lib. during the test period. After compound administrations, acclimated (control) as well as non-acclimated (stressed) mice were individually housed in a 20 cm wide×20 cm deep×15 cm tall cage, with a wire mesh bottom. An absorbant cardboard is placed beneath the cages. The number of fecal pellets excreted by each mouse was determined at hourly intervals following placement of the mice in the individual cages. Raw Data=# of fecal pellets/mouse/hr. […]

Where two headings read alike, the source gives them in different places.

T4 sequence (P35372 whole entry): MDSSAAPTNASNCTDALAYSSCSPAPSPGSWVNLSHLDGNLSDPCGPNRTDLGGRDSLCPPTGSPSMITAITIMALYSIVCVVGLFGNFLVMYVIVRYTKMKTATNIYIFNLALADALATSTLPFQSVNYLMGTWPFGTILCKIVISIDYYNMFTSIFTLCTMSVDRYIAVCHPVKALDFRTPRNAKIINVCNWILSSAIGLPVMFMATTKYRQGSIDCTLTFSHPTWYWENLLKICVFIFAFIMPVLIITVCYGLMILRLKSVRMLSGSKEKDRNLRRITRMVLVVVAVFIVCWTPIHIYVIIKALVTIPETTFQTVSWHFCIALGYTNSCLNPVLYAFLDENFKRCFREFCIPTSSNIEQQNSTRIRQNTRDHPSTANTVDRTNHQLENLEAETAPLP
T3 sequence (P35372 whole entry): as above
T2 sequence (P33535 whole entry): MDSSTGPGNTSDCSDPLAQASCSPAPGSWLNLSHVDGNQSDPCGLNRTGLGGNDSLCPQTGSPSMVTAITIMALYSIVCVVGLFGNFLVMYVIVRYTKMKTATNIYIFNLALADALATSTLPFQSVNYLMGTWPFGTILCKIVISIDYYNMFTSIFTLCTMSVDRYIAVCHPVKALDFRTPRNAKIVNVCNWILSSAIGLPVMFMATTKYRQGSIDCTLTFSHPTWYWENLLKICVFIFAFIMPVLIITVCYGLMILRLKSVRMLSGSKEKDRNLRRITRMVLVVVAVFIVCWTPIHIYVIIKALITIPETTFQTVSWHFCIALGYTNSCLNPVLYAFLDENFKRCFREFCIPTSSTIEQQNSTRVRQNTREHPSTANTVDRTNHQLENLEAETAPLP
T5 sequence (P41143 whole entry): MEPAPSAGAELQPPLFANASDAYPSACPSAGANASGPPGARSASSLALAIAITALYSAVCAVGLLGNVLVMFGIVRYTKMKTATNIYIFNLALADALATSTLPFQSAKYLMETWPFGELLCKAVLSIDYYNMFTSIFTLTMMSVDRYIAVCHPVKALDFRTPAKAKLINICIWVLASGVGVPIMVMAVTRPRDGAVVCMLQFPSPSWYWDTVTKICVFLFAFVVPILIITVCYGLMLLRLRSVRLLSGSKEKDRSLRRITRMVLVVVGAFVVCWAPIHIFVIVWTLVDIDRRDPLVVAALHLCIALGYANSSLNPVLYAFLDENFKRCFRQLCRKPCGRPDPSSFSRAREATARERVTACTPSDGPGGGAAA
T1 sequence (P33533 whole entry): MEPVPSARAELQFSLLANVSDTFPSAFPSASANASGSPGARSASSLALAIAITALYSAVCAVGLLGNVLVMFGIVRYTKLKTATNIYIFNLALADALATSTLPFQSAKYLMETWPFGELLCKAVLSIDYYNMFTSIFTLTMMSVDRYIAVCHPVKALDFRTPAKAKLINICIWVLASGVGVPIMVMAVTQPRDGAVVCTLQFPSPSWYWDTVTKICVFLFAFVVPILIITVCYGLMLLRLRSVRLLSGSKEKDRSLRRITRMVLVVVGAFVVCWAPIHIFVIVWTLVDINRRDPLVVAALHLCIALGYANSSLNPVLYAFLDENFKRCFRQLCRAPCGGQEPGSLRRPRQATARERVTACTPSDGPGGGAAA

With `CCNC(=O)c1cc(C)c(C[C@H](N)C(=O)N(C)[C@H](C)c2nc(-c3ccccc3)c[nH]2)c(C)c1` [Cpd 182], the Ki on delta opioid receptor turned out to be 1860 nM; at mu opioid receptor it was 7 nM. Besides, the “MOR GTP binding assay_v1 (% I)” value in assay [1] is 6.00%.
Turning to `C[C@H](c1nc(-c2ccccc2)c[nH]1)N(C)C(=O)[C@@H](N)Cc1ccc(O)cc1` [Cpd 210], the values for the Ki at delta opioid receptor, at mu opioid receptor and at human mu opioid receptor were 1860 nM, 420 nM and 0.29 nM, respectively. In addition, the “MOR GTP binding assay_v1 (% I)” value in assay [1] was found to be 10.00%. The “MOR GTP assay_v1 % of Basal” value in assay [1] came out at 414.00%.
Consider `CN(Cc1nc(-c2ccccc2)c[nH]1)C(=O)[C@@H](N)Cc1ccc(O)cc1` [Cpd 198], for which the Ki is 5180 nM at delta opioid receptor, 152 nM at mu opioid receptor, 140 nM at human mu opioid receptor and above 10000 nM in assay [2].
Take `Cc1cc(O)cc(C)c1C[C@H](N)C(=O)N[C@@H](Cc1ccccc1)c1nc(-c2ccccc2)c[nH]1` [Cpd 177]: at delta opioid receptor, the Ki was determined as 255 nM. Besides, the Ki on mu opioid receptor stood at 13.4 nM. Moreover, in assay [1], the “MOR GTP binding assay_v1 (% I)” value was 23.00% and the “MOR GTP assay_v1 % of Basal” value is 625.00%.
Regarding `Cc1cc(O)cc(C)c1C[C@H](N)C(=O)N[C@@H](COCc1ccccc1)c1nc(-c2ccccc2)c[nH]1` [Cpd 175], the Ki on delta opioid receptor is 166 nM; on mu opioid receptor, 3.6 nM. In assay [1], the “MOR GTP binding assay_v1 (% I)” value turned out to be 53.00%. Moreover, the “MOR GTP assay_v1 % of Basal” value in assay [1] is 471.00%.
As to `C[C@@H](c1nc(-c2ccccc2)c[nH]1)N(C)C(=O)[C@@H](N)Cc1ccc(O)cc1` [Cpd 211], the Ki on delta opioid receptor is 180 nM. Also, the Ki at mu opioid receptor was 5.9 nM. Further, in assay [1], the “MOR GTP binding assay_v1 (% I)” value was 10.00% and the “MOR GTP assay_v1 % of Basal” value was found to be 371.00%.
Turning to `Cc1cc(O)cc(C)c1C[C@H](N)C(=O)N[C@@H](Cc1cccc(C#N)c1)c1nc(-c2ccccc2)c[nH]1` [Cpd 173], at delta opioid receptor, the Ki amounted to 5070 nM. On mu opioid receptor, the Ki amounted to 45.7 nM. Also, in assay [1], the “MOR GTP binding assay_v1 (% I)” value came out at 85.00% and the “MOR GTP assay_v1 % of Basal” value is recorded as 147.00%.
`Cc1cc(O)cc(C)c1C[C@H](N)C(=O)N[C@@H](C)c1nc(-c2ccccc2)c[nH]1` [Cpd 209]: the Ki was found to be 708 nM at delta opioid receptor, 17 nM on mu opioid receptor and 23 nM on human mu opioid receptor. For the same compound, the “MOR GTP binding assay_v1 (% I)” value in assay [1] is listed as 10.00%. The “MOR GTP assay_v1 % of Basal” value in assay [1] is 295.00%.
As for `N[C@@H](Cc1ccc(O)cc1)C(=O)N(Cc1nc(-c2ccccc2)c[nH]1)C1CCCCC1` [Cpd 191], the Ki was 727 nM at delta opioid receptor, 189 nM at mu opioid receptor and above 10000 nM in assay [2].
On to `CCNC(=O)c1cc(C)c(C[C@H](N)C(=O)N(C)[C@@H](C)c2nc(-c3ccccc3)c[nH]2)c(C)c1` [Cpd 181], for which the Ki at delta opioid receptor was determined as 341 nM; at mu opioid receptor it was 1.3 nM. The “MOR GTP binding assay_v1 (% I)” value in assay [1] was determined as 1.00%.
As to `N[C@@H](Cc1ccc(O)cc1)C(=O)N(Cc1nc(-c2ccccc2)c[nH]1)CC1CC1` [Cpd 193], the values for the Ki (on delta opioid receptor; on mu opioid receptor; in assay [2]) were 182 nM, 21.1 nM and above 10000 nM, respectively. The “MOR GTP binding assay_v1 (% I)” value in assay [1] turned out to be 54.00%. Besides, in assay [1], the “MOR GTP assay_v1 % of Basal” value was found to be 182.00%.
Regarding `Cc1cc(C(N)=O)cc(C)c1C[C@H](N)C(=O)N(Cc1nc(-c2ccccc2)c[nH]1)C(C)C` [Cpd 178], the Ki on delta opioid receptor came to 104 nM; on mu opioid receptor, 0.6 nM. In addition, the “MOR GTP binding assay_v1 (% I)” value in assay [1] was found to be 10.00%. Moreover, the “Fecal Output (# pellets) cpd” value in assay [3] (novel environment-stressed mice) was 5.5 pellets. Further, the response vs control in vivo at 30 mg/kg in assay [3] (relative to acclimated control, read-out: Fecal Output cpd % control) is 172%; in assay [3] (relative to novel environment stress (NES) vehicle group, read-out: Fecal Output cpd % NES), 62.5%.
Turning to `Cc1cc(O)cc(C)c1C[C@H](N)C(=O)N[C@H](C)c1nc(-c2ccccc2)c[nH]1` [Cpd 208], the results for the Ki on delta opioid receptor, on mu opioid receptor and on human mu opioid receptor were 33 nM, 1.3 nM and 1.2 nM, respectively. In addition, the “MOR GTP binding assay_v1 (% I)” value in assay [1] was found to be 1.00%. The “MOR GTP assay_v1 % of Basal” value in assay [1] stood at 475.00%.
With `Cc1cc(O)cc(C)c1C[C@H](N)C(=O)N(Cc1ccccc1)[C@H](C)c1nc(-c2ccccc2)c[nH]1` [Cpd 220], the Ki came out at 6920 nM on delta opioid receptor, 157 nM on mu opioid receptor and 377 nM at human mu opioid receptor.

The values above are taken from patent US10213415B2, “Compounds as opioid receptor modulators” (JANSSEN PHARMACEUTICA NV, priority 2004, dated 2019).
